According to publication PMC6271477, “Effects of Single Amino Acid Substitution on the Biophysical Properties and Biological Activities of an Amphipathic α-Helical Antibacterial Peptide Against Gram-Negative Bacteria” (Molecules, 2014):

Experiments:
[1] = Analytical RP-HPLC retention time as a measure of peptide hydrophobicity; format: physicochemical; conditions: RP-HPLC at 25 °C, Zorbax 300 SB-C8 column, linear AB gradient, A 0.1% aqueous TFA, B 0.1% TFA in acetonitrile, 1 mL/min, detection at 210 nm
Protocol: Among substitutions, the retention times ranged from 32.2 min (peptide V16K) to 40.4 min (peptide V16L), which reflect the pure effects of single amino acid substitutions. Thus, the retention times of peptides reflect the relative hydrophobicity of side chains. Consistent with previous studies, the hydrophobicity of peptide analogs was generally in the following order: Lys < Gly < Ser < Ala < Val < Leu. Glu-substituted peptide was an exception, as it contains a negatively-charged side chain and this should decrease the hydrophobicity of the peptide dramatically.
Peptides were analyzed on a Shimadzu LC-20A HPLC using a Zorbax 300 SB-C8 column (150 ° 4.6 mm i.d., 5 μm particle size, 300 Å pore size) from Agilent Technologies using a linear AB gradient and a flow rate of 1 mL/min, where solvents A and B were as described above. Absorbance signals of peptides were detected at 210 nm.

[2] = CD spectroscopy, helicity in benign buffer and in 50% TFE; format: physicochemical; conditions: for [θ]222, mean residue molar ellipticity, benign / [θ]222, mean residue molar ellipticity, 50% TFE: CD at 222 nm, peptide 75 μM; for [θ]222, mean residue molar ellipticity, benign / [θ]222, mean residue molar ellipticity, 50% TFE / % helix, 50% TFE: 25 °C; for [θ]222, mean residue molar ellipticity, benign: KP buffer (100 mM KCl, 50 mM K2HPO4/KH2PO4, pH 7.0); for [θ]222, mean residue molar ellipticity, 50% TFE / % helix, 50% TFE: KP buffer diluted 1:1 (v/v) with TFE; for % helix, 50% TFE / % helix, benign: relative to the molar ellipticity of peptide V16E in 50% TFE; for % helix, benign: KP buffer pH 7.0, 25 °C
Protocol: The secondary structures of peptides were determined in benign buffer and in a hydrophobic environment (50% trifluoroethanol, TFE) to mimic the hydrophobic environment of the membrane. […] The principle of side chain interaction at the i to i + 3 and i to i + 4 positions has been used to promote α-helix stability, for example, the incorporation of Lys and Glu residues to stabilize electrostatic attractions. Thus, the helicity of peptide V16E in the presence of 50% TFE that presented the greatest value among all analogs should rely on the contribution of the electrostatic attraction of the side chain of K13 and E16, which stabilizes the helix. The relative helicity is 100% for peptide V16E in 50% TFE, showing the importance of the salt bridges of K13 and E16 to stabilize the helical structure. In general, subtle side-chain alterations by single amino acid substitutions made no significant changes on secondary structures both in aqueous and in hydrophobic environments (Table 2).
Circular dichroism spectra were measured with a 0.02 cm path length quartz cuvette on a Jasco J-810 spectropolarimeter (Jasco, Tokyo, Japan) at 25 °C. Data were collected from 250 to 190 nm at a sensitivity of 100 millidegrees, response time of 1 s, bandwidth of 1.0 nm and a scan speed of 100 nm/min. Peptides were measured at a concentration of 75 μM in a benign buffer (50 mM KH2PO4/K2HPO4, 100 mM KCl, pH 7) or the benign buffer mixed with 50% 2,2,2-trifluoroethanol (TFE). The mean residue molar ellipticities were calculated using the equation [θ] = θ/10lcMn, where θ is the ellipticity in millidegrees, l is the optical path length of the cuvette in centimeters, cM is the peptide concentration in mole/liter and n is the number of residues in the peptide.

[3] = tested on: E. coli ATCC25922; format: cell-based; conditions: ATCC25922, 24 h
Protocol: (§1) Minimal inhibitory concentrations (MIC) were determined using a broth dilution method. Briefly, bacteria were grown overnight at 37 °C in Mueller–Hinton (MH) Broth, diluted in the same medium and transferred into 96-well microtiter plates (90 μL/well). Peptides were serially diluted using 0.2% bovine serum albumin containing 0.01% acetic acid and added to the microtiter plates in a volume of 10 μL per well to give a final concentration of 5 × 10^5 CFU/mL. MICs were defined as the lowest peptide concentration that inhibited bacterial growth after incubation for 24 h at 37 °C.

[4] = tested on: E. coli Clinical Isolate; format: cell-based; conditions: Clinical Isolate, 24 h
Protocol: as §1

[5] = tested on: P. aeruginosa ATCC27853; format: cell-based; conditions: ATCC27853, 24 h
Protocol: as §1

[6] = tested on: P. aeruginosa H188; format: cell-based; conditions: H188, 24 h
Protocol: as §1

[7] = tested on: E. coli DH5α; assay: MIC by broth dilution; format: cell-based; conditions: MH broth, 5 × 10^5 CFU/mL, 24 h at 37 °C
Protocol: as §1

[8] = Tryptophan fluorescence, binding to lipid vesicles; conditions: for Tryptophan fluorescence emission maximum: excitation 280 nm
Protocol: Upon peptide diffusion into the cytoplasmic membrane, evidence of selective interaction between peptides with bacterial versus mammalian cytoplasmic membrane was illustrated by the binding events of the peptides to anionic or zwitterionic lipid vesicles. […] Lipid/peptide (L/P) ratios were maintained high enough at low peptide concentration (2 μM) in order to mimic the initial steps of peptide-membrane binding. The spectra were recorded as shown in Supplementary Figure S1. […] The significant blue shifts of Δλmax (17 to 23 nm) for all peptides upon exposure to PC/PG vesicles indicated a membrane partition state of Trp in negatively charged vesicles containing 30% anionic lipids (PG).
Unilamellar vesicles were prepared by a standard procedure with either PC/PG (7:3, w/w) or PC/cholesterol (8:1, w/w) as described previously. Briefly, the desired mixtures of lipids were dissolved in a chloroform/methanol mixture (2:1, v/v), dried under nitrogen and then lyophilized for 24 h to remove traces of organic solvent. Dry lipid films were suspended in 10 mM HEPES buffer containing 150 mM NaCl (pH 7.4) by vortex mixing. After five freeze-thawing cycles, the suspension was extruded 15 times through double polycarbonate membranes with 0.1 μm diameter pores on an Avanti mini-extruder apparatus. The lipid concentration was determined by phosphorus analysis as previously reported.
(§2) Fluorescence emission spectra of peptide Trp residues were monitored by a Shimadzu RF-5301 spectrofluorometer. The excitation of wavelength was set as 280 nm and the emission spectra of each peptide, with or without lipid vesicles, were recorded between 300 and 450 nm. Thus three curves were recorded for each peptide, in HEPES buffer or with either PC/PG vesicles or PC/cholesterol vesicles. The blue shift of Trp residues in vesicles were referred to in buffer condition. The final concentrations of peptide and lipid were 2 μM and 100 μM (1/50), respectively.

[9] = Tryptophan fluorescence in HEPES buffer; format: physicochemical; conditions: peptide 2 μM, excitation 280 nm
From the text: Upon peptide diffusion into the cytoplasmic membrane, evidence of selective interaction between peptides with bacterial versus mammalian cytoplasmic membrane was illustrated by the binding events of the peptides to anionic or zwitterionic lipid vesicles. The repositioning of the tryptophan indole group in an environment of reduced polarity upon membrane binding results in a blue shift in the fluorescence […] maximum coupled with an enhancement of emission intensity. Lipid/peptide (L/P) ratios were maintained high enough at low peptide concentration (2 μM) in order to mimic the initial steps of peptide-membrane binding. The spectra were recorded as shown in Supplementary Figure S1. […] The significant blue shifts of Δλmax (17 to 23 nm) for all peptides upon exposure to PC/PG vesicles indicated a membrane partition state of Trp in negatively charged vesicles containing 30% anionic lipids (PG).
as §2

[10] = PC/PG (7:3, w/w) vesicles versus HEPES buffer, lipid:peptide 50:1, peptide 2 μM
[11] = PC/PG (7:3, w/w) vesicles, lipid and peptide in a molar ratio of 50:1, peptide 2 μM, lipid 100 μM
[12] = PC/cholesterol (8:1, w/w) vesicles versus HEPES buffer, peptide 2 μM, lipid 100 μM
[13] = PC/cholesterol (8:1, w/w) vesicles, peptide 2 μM, lipid 100 μM

Substance	tR, retention time during RP-HPLC (relative hydrophobicity) [1]	[θ]222, mean residue molar ellipticity, benign [2]	[θ]222, mean residue molar ellipticity, 50% TFE [2]	% helix, 50% TFE [2]	% helix, benign [2]	MIC [3]	MIC [4]	MIC [5]	MIC [6]	MIC [7]	Blue shift in emission maximum [8, 10]	Tryptophan fluorescence emission maximum [8, 11]	Blue shift in emission maximum [8, 12]	Tryptophan fluorescence emission maximum [8, 13]	Tryptophan fluorescence emission maximum [9]
Ac-KWKSFLKTFKSAKKTSLHTALKAISS-NH2 [Peptide V16S]	34.3 min	−1,760 degree·cm^2·dmol^−^1	−28,949 degree·cm^2·dmol^−^1	96.3%	5.9%	8 µg/mL	16 µg/mL	32 µg/mL	4 µg/mL	8 µg/mL	22 nm	328 nm	1 nm	349 nm	350 nm
Ac-KWKSFLKTFKSAKKTGLHTALKAISS-NH2 [Peptide V16G]	33.6 min	−2,839 degree·cm^2·dmol^−^1	−27,857 degree·cm^2·dmol^−^1	92.7%	9.4%	8 µg/mL	16 µg/mL	32 µg/mL	8 µg/mL	8 µg/mL	21 nm	329 nm	1 nm	349 nm	350 nm
Ac-KWKSFLKTFKSAKKTLLHTALKAISS-NH2 [Peptide V16L]	40.4 min	−3,595 degree·cm^2·dmol^−^1	−29,803 degree·cm^2·dmol^−^1	99.1%	12.0%	1 µg/mL	1 µg/mL	2 µg/mL	2 µg/mL	4 µg/mL	23 nm	326 nm	2 nm	348 nm	350 nm
Ac-KWKSFLKTFKSAKKTALHTALKAISS-NH2 [Peptide V16A]	36.6 min	−3,057 degree·cm^2·dmol^−^1	−28,769 degree·cm^2·dmol^−^1	95.7%	10.2%	2 µg/mL	1 µg/mL	4 µg/mL	4 µg/mL	4 µg/mL	22 nm	328 nm	1 nm	349 nm	350 nm
Ac-KWKSFLKTFKSAKKTELHTALKAISS-NH2 [Peptide V16E]	34.6 min	−3,465 degree·cm^2·dmol^−^1	−30,063 degree·cm^2·dmol^−^1	100%	11.5%	16 µg/mL	125 µg/mL	125 µg/mL	64 µg/mL	64 µg/mL	17 nm	333 nm	1 nm	349 nm	350 nm
